In patent US9670172B2, “Heterocyclic compounds and methods of use” (Medivation Technologies, Inc., priority 2014, dated 2017):
Converted amounts (≈) assume the structure as drawn. Where two headings read alike, the source gives them in different places.

Experiments:
SREBP2 [1] = experiment: SREBP2 cleavage in HEPG2 cells (Western blot normalized to actin); format: cell-based; settings: Homo sapiens, HepG2 cells, read-out: Average SREBP2 cleavage (% Inhibition, n = 3); for inhibition at 20 µM: 24 h, 1 day, DMEM without FBS
Experimental: Average SREBP2 cleavage in HEPG2 cells was measured in the presence of compounds disclosed in Table 1. HepG2 cells were seeded at 500,000 cells per well in 6-well plates in DMEM supplemented with 10% FBS. After 2 days, cells were treated with compounds (20 μM) for 1 day in DMEM without FBS. Western blots were normalized with respect to actin.
The results are shown in Table 3 as percent inhibition@20 μM, and in Table 4 as percent inhibition@5 μM.

[2] = HepG2 cell viability by MTS; format: cell-based; settings: human, HepG2 cells, 3 days, DMEM without FBS, MTS, read-out: Average Viability (% Inhibition, n = 3)
Experimental: (§1) For viability measurements, HepG2 cells were seeded at 5,000 cells per well in 96-well plates in DMEM supplemented with 10% FBS. After 1 day in culture, cells were treated with compounds (20 μM & 5 μM) for 3 days in DMEM without FBS. Viability was measured by MTS. Treatment with compounds (20 μM & 5 μM) was carried out in medium without FBS, and viability was measured by MTS. […]

HepG2 cells = experiment: HepG2 cell viability by MTS; format: cell-based; settings: Homo sapiens, several concentrations, FIG. 1
Experimental: as §1

[3] = pKa by potentiometric and spectrophotometric methods (Pion, Inc.); format: physicochemical; settings: two values, read-out: pKa experimentally obtained
Excerpt: As has been described above, the inherent pKa(s) of molecules can be assessed by potentiometric methods known to the skilled artisan, typically UV spectrophotometry [see, for example, Julémont, et al. J. Med. Chem. (2002), 45, pp 5182-5185]. In-silico methods can be used as a predictive tool, and software is commercially available from, for example, ACD/Labs, Molecular Discovery, ChemAxon, and other vendors. […] The compounds provided herein contain several ionizable centers including, for example, the trifluoromethylsulfonamide nitrogen atom; the thiazole ring nitrogen atom; the “ring A” pyridine nitrogen atom, etc.
Other ionized forms are conceivable, but those presented here are a protonated form; a neutral or internal zwitterionic form; and an anionic form. Which form would exist is dependent upon the pH of the aqueous or physiological solution in which the compound is placed. […] These values are similar to those experimentally obtained under potentiometric and spectrophotometric methods [courtesy of Pion, Inc.], found to be 3.09 and 5.27. […] Based on the calculated/measured pKa values of the trifluoromethylsulfonamide containing compounds claimed herein, it is likely that at a pH of 6-8, these compounds will predominantly exist in the anionic form, with the above equilibrium lying to the right at higher pH values. […]

[4] = Solubility study at different pH (Pion, Inc.); format: physicochemical; settings: aqueous buffer
Excerpt: Other ionized forms are conceivable, but those presented here are a protonated form; a neutral or internal zwitterionic form; and an anionic form. Which form would exist is dependent upon the pH of the aqueous or physiological solution in which the compound is placed. […] These values are similar to those experimentally obtained under potentiometric and spectrophotometric methods [courtesy of Pion, Inc.], found to be 3.09 and 5.27. […] It is postulated that the more electronegative nature of the CF3 group results in a more highly acidic nature of the compound. Based on the calculated/measured pKa values of the trifluoromethylsulfonamide containing compounds claimed herein, it is likely that at a pH of 6-8, these compounds will predominantly exist in the anionic form, with the above equilibrium lying to the right at higher pH values. The anionic form renders the compound more aqueous soluble and therefore better absorbed. […] When a compound is dosed orally, most of the absorption occurs in the intestines where the pH ranges from 6-8.

SREBP2 [5] = experiment: SREBP2 cleavage in HEPG2 cells (Western blot normalized to actin); format: cell-based; settings: Homo sapiens, several concentrations, FIG. 1
[6] = PK parameters for representative compounds (i.v. and p.o.); settings: in vivo; for half-life: read-out: Terminal t1/2 (converted)
Excerpt: Standard PK parameters were collected in Mouse and Dog for Compound #37 in mouse (FIG. 4A) and dog (FIG. 4B).

| IC50 (HepG2 cells) | pKa [3] | solubility ([4]; pH 6.0) | solubility ([4]; pH 7.0) | solubility ([4]; pH 8.0) | AUC(0-t) ([6]; iv, i.v. @ 2 mg/kg) | Cmax ([6]; iv, i.v. @ 2 mg/kg) | Vd ([6]; iv, i.v. @ 2 mg/kg) | clearance ([6]; iv, i.v. @ 2 mg/kg) | half-life ([6]; iv, i.v. @ 2 mg/kg) | AUC(0-t) ([6]; po, p.o. @ 10 mg/kg) | Cmax ([6]; po, p.o. @ 10 mg/kg) | Tmax ([6]; po, p.o. @ 10 mg/kg) | bioavailability ([6]; po, p.o. @ 10 mg/kg) | half-life ([6]; po, p.o. @ 10 mg/kg) | SMILES | inhibition at 20 µM (SREBP2 [1]) | inhibition at 5 µM (SREBP2 [1]) | cytotoxicity at 3 days, 5 μM [2] | cytotoxicity at 3 days, 20 μM [2] | IC50 (SREBP2 [5]) |
| --- | --- | --- | --- | --- | --- | --- | --- | --- | --- | --- | --- | --- | --- | --- | --- | --- | --- | --- | --- | --- |
| 2.15 µM | 3.09 | 13 µg/mL (≈ 27.3 µM) | 104 µg/mL (≈ 219 µM) | > 130 µg/mL |  |  |  |  |  |  |  |  |  |  | CC(C)Cc1cc(-c2nc(-c3ccc(NS(=O)(=O)C(F)(F)F)cc3Cl)cs2)ccn1 [Compound 37, N-(3-chloro-4-(2-(2-isobutylpyridin-4-yl)thiazol-4-yl)phenyl)-1,1,1-trifluoromethanesulfonamide] | 94.6% | 75% | 94% | 95% | 4.6 µM |
|  |  |  |  |  | 12.6 µM·h | 3.38 µM | 1.28 L/kg | 4.8 mL/min/kg | 3.08 h | 57.1 µM·h | 6.58 µM | 4 h | 90.2% | > 8 h | O=S(=O)(Nc1ccc(-c2csc(-c3ccnc(Cc4ccccc4)c3)n2)c(Cl)c1)C(F)(F)F [Compound 60, N-{4-[2-(2-benzylpyridin-4-yl)-1,3-thiazol-4-yl]-3-chlorophenyl}-1,1,1-trifluoromethanesulfonamide] | 99% |  |  | 100% |  |
|  |  |  |  |  | 38.5 µM·h | 7.13 µM | 1.95 L/kg | 0.917 mL/min/kg |  | 526 µM·h | 32.1 µM | 24 h | 273% | > 8 h | O=S(=O)(Nc1ccc(-c2csc(-c3ccnc(CCC(F)(F)F)c3)n2)c(Cl)c1)C(F)(F)F [Compound 64, N-(3-chloro-4-{2-[2-(3,3,3-trifluoropropyl)pyridin-4-yl]-1,3-thiazol-4-yl}phenyl)-1,1,1-trifluoromethanesulfonamide] | 97% |  |  | 100% |  |
|  |  |  |  |  | 2.2 µM·h | 4 µM | 5.22 L/kg | 54.7 mL/min/kg | 1.1 h | 5.19 µM·h | 2.2 µM | 0.5 h | 46.4% | 1.04 h | O=S(=O)(Nc1ccc(-c2csc(-c3ccnc(CC4CCCCC4)c3)n2)c(Cl)c1)C(F)(F)F [Compound 70, N-(3-chloro-4-{2-[2-(cyclohexylmethyl)pyridin-4-yl]-1,3-thiazol-4-yl}phenyl)-1,1,1-trifluoromethanesulfonamide] |  | 73% | 100% |  |  |
|  |  |  |  |  | 13.6 µM·h | 3.57 µM | 1.27 L/kg | 4.18 mL/min/kg | 3.5 h | 51.5 µM·h | 7.57 µM | 4 h | 75.9% | > 8 h | O=S(=O)(Nc1ccc(-c2csc(-c3cccc4ccccc34)n2)c(Cl)c1)C(F)(F)F [Compound 71, N-{3-chloro-4-[2-(naphthalen-1-yl)-1,3-thiazol-4-yl]phenyl}-1,1,1-trifluoromethanesulfonamide] |  | 77% | 97% |  |  |
|  |  |  |  |  | 8.94 µM·h | 3.63 µM | 1.72 L/kg | 70.8 mL/min/kg | 2.8 h | 130 µM·h | 20.6 µM | 4 h | 291% | > 8 h | O=S(=O)(Nc1ccc(-c2csc(-c3cccc4[nH]ccc34)n2)c(Cl)c1)C(F)(F)F [Compound 80, N-{3-chloro-4-[2-(1H-indol-4-yl)-1,3-thiazol-4-yl]phenyl}-1,1,1-trifluoromethanesulfonamide] |  | 90% | 86% |  |  |
|  |  |  |  |  | 25.4 µM·h | 12.6 µM | 0.719 L/kg | 2.28 mL/min/kg | 3.64 h | 175 µM·h | 25.8 µM | 4 h | 138% | > 8 h | O=S(=O)(Nc1ccc(-c2csc(-c3ccc4c(c3)CCO4)n2)c(Cl)c1)C(F)(F)F [Compound 82, N-{3-chloro-4-[2-(2,3-dihydro-1-benzofuran-5-yl)-1,3-thiazol-4-yl]phenyl}-1,1,1-trifluoromethanesulfonamide] |  | 77% | 82% |  |  |
|  |  |  |  |  | 0.655 µM·h | 0.241 µM | 27.3 L/kg | 77.2 mL/min/kg | 4.08 h | 2.27 µM·h | 0.45 µM | 2 h | 69.3% | > 8 h | O=S(=O)(Nc1ccc(-c2csc(-c3ccnc(N4CCCCC4)c3)n2)c(Cl)c1)C(F)(F)F [Compound 85, N-(3-chloro-4-{2-[2-(piperidin-1-yl)pyridin-4-yl]-1,3-thiazol-4-yl}phenyl)-1,1,1-trifluoromethanesulfonamide] |  | 82% | 93% |  |  |
|  |  |  |  |  |  |  |  |  |  |  |  |  |  |  | O=S(=O)(Nc1ccc(-c2csc(-c3ccnc4[nH]ccc34)n2)c(Cl)c1)C(F)(F)F [Compound 87, N-[3-chloro-4-(2-{1H-pyrrolo[2,3-b]pyridin-4-yl}-1,3-thiazol-4-yl)phenyl]-1,1,1-trifluoromethanesulfonamide] |  | 50% | 9% |  |  |
|  |  |  |  |  | 10.6 µM·h | 3.44 µM | 1.45 L/kg | 5 mL/min/kg | 3.35 h | 51.5 µM·h | 8.41 µM | 2 h | 96.8% | > 8 h | O=S(=O)(Nc1ccc(-c2csc(-c3cccc(N4CCCCC4)c3)n2)c(Cl)c1)C(F)(F)F [Compound 88, N-(3-chloro-4-{2-[3-(piperidin-1-yl)phenyl]-1,3-thiazol-4-yl}phenyl)-1,1,1-trifluoromethanesulfonamide] |  | 90% | 19% |  |  |
|  |  |  |  |  |  |  |  |  |  |  |  |  |  |  | O=S(=O)(Nc1ccc(-c2csc(-c3csc4ccccc34)n2)c(Cl)c1)C(F)(F)F [Compound 90, N-{4-[2-(1-benzothiophen-3-yl)-1,3-thiazol-4-yl]-3-chlorophenyl}-1,1,1-trifluoromethanesulfonamide] |  | 64% | 99% |  |  |
|  |  |  |  |  |  |  |  |  |  |  |  |  |  |  | O=S(=O)(Nc1ccc(-c2csc(-c3ccc(F)cc3CN3CCCC3)n2)c(Cl)c1)C(F)(F)F [Compound 91, N-(3-chloro-4-{2-[4-fluoro-2-(pyrrolidin-1-ylmethyl)phenyl]-1,3-thiazol-4-yl}phenyl)-1,1,1-trifluoromethanesulfonamide] |  | 16% | 4% |  |  |
|  |  |  |  |  |  |  |  |  |  |  |  |  |  |  | O=S(=O)(Nc1ccc(-c2csc(-c3ccnc(NC4CCCC4)c3)n2)c(Cl)c1)C(F)(F)F [Compound 92, N-(3-chloro-4-{2-[2-(cyclopentylamino)pyridin-4-yl]-1,3-thiazol-4-yl}phenyl)-1,1,1-trifluoromethanesulfonamide] |  | 59% | 94% |  |  |
|  |  |  |  |  |  |  |  |  |  |  |  |  |  |  | O=S(=O)(Nc1ccc(-c2csc(-c3c[nH]c4ccccc34)n2)c(Cl)c1)C(F)(F)F [Compound 93, N-{3-chloro-4-[2-(1H-indol-3-yl)-1,3-thiazol-4-yl]phenyl}-1,1,1-trifluoromethanesulfonamide] |  | 28% | 82% |  |  |
|  |  |  |  |  |  |  |  |  |  |  |  |  |  |  | O=S(=O)(Nc1ccc(-c2csc(-c3ccnc4ccccc34)n2)c(Cl)c1)C(F)(F)F [Compound 94, N-[3-chloro-4-[2-(4-quinolyl)thiazol-4-yl]phenyl]-1,1,1-trifluoro-methanesulfonamide] |  | 35% | 84% |  |  |
|  |  |  |  |  |  |  |  |  |  |  |  |  |  |  | O=S(=O)(Nc1ccc(-c2csc(-c3ccnc(Cl)c3)n2)c(Cl)c1)C(F)(F)F [Compound 95, N-(3-chloro-4-(2-(2-chloropyridin-4-yl)thiazol-4-yl)phenyl)-1,1,1-trifluoromethanesulfonamide] |  | 39% | 86% |  |  |
